Several values for one entry are separate records, joined by “and”; a condition that tells them apart may be missing. Equal values may be shown once.
How the values were obtained:
[1] = Measured pKa of cationic lipids in LNP or micellar formulations by TNS fluorescence; assay type: physicochemical; settings: for pKa / (pKa) measured pKa: measured in the Formulation milieu, TNS fluorescence, 1 mM total lipids
Protocol: pKa of cationic lipids in LNP or micellar Formulations were measured by the procedure of Jayaraman, 2012, Angew. Chem. Int. Ed., 51:8529-33, hereby incorporated by reference. Lipid micelles or LNPs are diluted to 1 mM total lipids in universal buffer with a pH range between 3 and 12 in presence of 0.06 mg/mL 6-(p-toluidino)-2-naphthalenesulfonic acid sodium salt (TNS) reagent (Sigma Aldrich), a pH sensitive fluorescence probe. The anionic TNS molecule fluoresces when associated with the surface of positively charged membranes but is not fluorescent when free in solution, allowing measurement of pKa. The TNS signal is measured on a spectral plate reader. The TNS signal is plotted as function of the pH and analyzed using a non-linear (Boltzman) to determine the pKa.
Reagents used in the assay include • Hepes free acid, CAS: 7365-45-9 (VWR, 0511-1KG or equivalent) • MES, HPLC grade: (Sigma 105228-100G or equivalent) • Ammonium acetate, HPLC grade: (Sigma 90335-100 mL or equivalent) • Sodium chloride, HPLC grade (VWR EM-MX0475-1 or equivalent) • TNS (Sigma-Aldrich T9792-250 mg or equivalent) • Hydrochloric acid • DMSO • DPBS without calcium and magnesium (GE, SH30028.02 or equivalent) • H2O, HPLC grade (OmniSolv, WX0004-1 or equivalent)
To prepare a stock solution of Universal Buffer (UB) in a polystyrene sterile storage bottle, prepare 1 L using the following table.
Reagents are sterile filtered through a 0.2 μm filter. Preparation of UB solution includes adding 5 mL of 1 M HCl to a 350 mL stock solution.
To prepare a pH ladder, centrifuge tubes (50 mL) with 20 mL UB buffer are used. (pH ˜3) and differing amounts of 2 N NaOH. Stock solutions of TNS at 1 mg/mL in DMSO. 60 μL of TNS at 1 mg/mL is added to 940 μL water to reach a working solution concentration of 0.06 mg/mL. Five test samples, 1 mL of LNP sample in PBS at 1 mM total lipid, and 1 reference sample are analyzed per plate. Samples at different pH values are prepared in wells in which 25 μL of 0.06 mg/mL TNS is added. 15 μL of test samples is added per well. The microplate is incubated for 15 minutes at room temperature in the dark. TNS template can be used to format data from the plate reader. Perform non-linear (Boltzman) regression analysis of the samples in Origin Pro 8 or equivalent software.

Factor VII = experiment: In vivo mouse Factor VII siRNA knockdown with lipid nanoparticles; parameters: species or system C57BL/6 mice; settings: intravenous, 48 hours, mice; for Bioactivity: percentage in vivo Factor VII knockdown: dose 0.03 mg/kg
Excerpt: The first pair of numbers denotes the number of carbons in the ester, including the carbonyl, for L1 and L2; the pair of numbers in the parenthesis denotes the number of carbons in each branch of the branched alkyl, R1 or if R2 is also branched, R1/R2 (an asterisk denotes a double bond); the number of carbons in R3 is given; and the last line denotes the substitution for R4 and R5. The ATX number is given for reference herein. Calculated Log D values (c-Log D) and calculated pKa (c-pKa) values are given, as well as measured pKa in parenthesis (measured in the Formulation milieu). The c-Log D and c-pKa values are generated by ACD Labs Structure Designer v12.0. Bioactivity is percentage in vivo Factor VII knockdown at a dose of 0.03 mg/kg, unless otherwise designated.
Using a liver-directed in vivo screen of the liposome libraries, a series of compounds were tested that facilitate high levels of siRNA mediated gene silencing in hepatocytes, the cells comprising the liver parenchyma. Factor VII, a blood-clotting factor, is a suitable target gene for assaying functional siRNA delivery to liver. Because this factor is produced specifically in hepatocytes, gene silencing indicates successful delivery to parenchyma, as opposed to delivery to the cells of the reticulo-endothelial system (e.g., Kupffer cells). Furthermore, Factor VII is a secreted protein that can be readily measured in serum, obviating the need to euthanize animals. Silencing at the mRNA level can be readily determined by measuring levels of protein. This is because the protein's short half-life (2-5 hour). Compositions with siRNA directed to […] were Formulated with the lipid, and comparator sample phosphate-buffered saline (PBS). Female C57BL/6 mice (6-8 week old) were used for FVII siRNA knockdown (KD) experiments.
All Formulations were administered intravenously via tail vein injection at a dose of 0.03 and 0.1 mg/kg at a dosing volume of […]. Terminal blood collection was performed via cardiac puncture under 2% isoflurane at 48 hours after Formulation injections. Blood was collected into 0.109 M citrate buffer tube and processed by centrifugation at 1200 G for 10 min. Plasma was collected and Factor VII protein levels were analyzed by chromogenic assay (Biophen FVII, Aniara Corporation). A standard curve was constructed using samples from PBS-injected mice and relative Factor VII expression was determined by comparing treated groups to untreated PBS control.

epo protein = experiment: In vivo epo protein expression after delivery of lipid encapsulated mouse epo mRNA (epo ELISA); parameters: species or system Balb/c mice; settings: at 0.1 mg/kg, intravenous, 6 hours, mice
Protocol: Epo expression following delivery of mRNA using lipid nanoparticles comprising the lipids described herein was measured.
Female Balb/c mice (6-8 weeks old) were used for evaluation of epo protein expression in vivo following delivery of lipid encapsulated mouse epo mRNA. All formulations were administered intravenously via tail vein injection at a dose of 0.03 and 0.1 mg/kg at a dosing volume of 5 mL/kg. Terminal blood collection was performed via cardiac puncture under 2% isoflurane at 6 hours after Formulation injections. Blood was collected into 0.109 M citrate buffer tube and processed by centrifugation at 5000 rpm for 10 minutes. Serum was collected and epo protein levels were analyzed by epo ELISA assay (R&D systems). A standard curve was constructed using samples from PBS-injected mice and relative […] expression was determined by comparing treated groups to untreated PBS control.

mouse epo mRNA = experiment: In vivo EPO mRNA stability after injection of lipid encapsulated mouse epo mRNA; parameters: species or system Balb/c mice; settings: 0.03 and 0.1 mg/kg intravenous, 6 hours after injection, mice
Protocol: Levels of mRNA in plasma were measured and compared following injection of nanoparticles comprising different cationic lipids. Female Balb/c mice (6-8 week old) were used for evaluation of plasma erythropoietin (epo) levels in vivo following injection of lipid encapsulated mouse epo mRNA. All Formulations were administered intravenously via tail vein injection at a dose of 0.03 and 0.1 mg/kg at a dosing volume of 5 ml/kg. Terminal blood collection was performed via cardiac puncture under 2% isoflurane at 6 hours after Formulation injections. Blood was collected into 0.109 M citrate buffer tube and processed by centrifugation at 5000 rpm for 10 minutes. Serum was collected and epo mRNA levels were analyzed. Results are shown at FIG. 17.

Row | Compound | Δ measured pKa vs ATX-0002 ([1]; change on shortening the ester, vs ATX-0002) | pKa [1] | Factor VII knockdown activity compared with ATX-002 (FIG. 18) (Factor VII; both at 0.03 and 0.1 mg/kg) | Bioactivity: percentage in vivo Factor VII knockdown (Factor VII) [percentage] | epo expression compared with ATX-002 (FIG. 19) (epo protein) | epo mRNA levels in serum compared with ATX-0002 (FIG. 17) (mouse epo mRNA) | (pKa) measured pKa [1]
1 | CCCCCC/C=C\COC(=O)CCCN(CCCC(=O)OC(CCCCCCC)CCCCCCCC)C(=O)SCCN(C)C (stereo not shown) [ATX-0057] | no impact | 5.7 | substantially more effective than ATX-002 | 86 | substantially higher amounts | substantial improvement over ATX-0002 | –
2 | CCCCCC/C=C\COC(=O)CCCN(CCCC(=O)OC(CCCCCCC)CCCCCCC)C(=O)SCCN(C)C [ATX-0081] | – | 6.04 | – | 93 | – | substantial improvement over ATX-0002 | –
3 | CCCCCC/C=C\COC(=O)CCCCCN(CCC(=O)OC(CCCCCCC)CCCCCCC)C(=O)SCCN(C)C [ATX-0082] | – | – | – | – | – | substantial improvement over ATX-0002 | –
4 | CCCCCC/C=C\COC(=O)CCCCCN(CCCC(=O)OC(CCCCCCC)CCCCCCC)C(=O)SCCN(C)C [ATX-0083] | – | 5.98 | – | 65 | – | substantial improvement over ATX-0002 | –
5 | CCCCCC/C=C\COC(=O)CCCCCN(CCCCCC(=O)OC(CCCCCC)CCCCCC)C(=O)SCCN(C)C [ATX-0084] | – | 6.11 | – | 68 | – | substantial improvement over ATX-0002 | –
6 | CCCCCC/C=C\COC(=O)CCCN(CCCC(=O)OC(CCCCCC)CCCCCC)C(=O)SCCN(C)C [ATX-0086] | – | 6.05 | – | 13 | – | substantial improvement over ATX-0002 | –
7 | CCCCCC/C=C\COC(=O)CCCN(CCCC(=O)OC(CCCCCCCC)CCCCCCCC)C(=O)SCCN(C)C [ATX-0087] | – | – | – | – | – | substantial improvement over ATX-0002 | –
8 | CCCCCC/C=C\COC(=O)CCCCCCCN(CCCCCCCC(=O)OC(CCCCCC)CCCCCC)C(=O)SCCN(C)C [ATX-0093] | – | 5.79 | – | 70 | – | – | –
9 | CCCCCC/C=C\COC(=O)CCCCCCCN(CCCCCCCC(=O)OC(CCCCCCCC)CCCCCCCC)C(=O)SCCN(C)C [ATX-0096] | – | 5.59 | – | 40 | – | – | –
10 | CCCCCC/C=C\COC(=O)CCCCCCCN(CCCCCCCC(=O)OC(CCCCCCC)CCCCCCC)C(=O)SCCN(C)C [ATX-0097] | – | 5.89 | – | 71 | – | – | –
11 | CCCCCCCC(CCCCCCC)OC(=O)CN(CC(=O)OC(CCCCCCC)CCCCCCC)C(=O)SCCCN(CC)CC [ATX-0134] | – | 5.62 | – | 25 | – | – | –
12 | CCCCCC(CCCCC)OC(=O)CN(CC(=O)OC(CCCCC)CCCCC)C(=O)SCCCN(C)C [drawing 51] | – | 6.28 | – | 0 | – | – | 6.17
13 | CCCCCC(CCCCC)OC(=O)CN(CC(=O)OC(CCCCC)CCCCC)C(=O)SCCCN(C)C [drawing 52] | – | – | – | 0 | – | – | 6.28 and 6.17
14 | CCCCCC/C=C\COC(=O)CCCN(CCCC(=O)OC(CCCCCCCC)CCCCCCCC)C(=O)SCCN(C)C [drawing 76] | – | 6.06 | – | 80 | – | – | –
15 | CCCCCC/C=C\COC(=O)CCCCCN(CCC(=O)OC(CCCCCCC)CCCCCCC)C(=O)SCCN(C)C [drawing 82] | – | 5.77 | – | 43 | – | – | –
